Measurements reported in patent US8716231B2, “Use of benzo-fused heterocycle sulfamide derivatives for the treatment of pain” (Janssen Pharmaceutica NV, priority 2005, dated 2014).

How the values were obtained:
[1] = system: Taxol®-induced mechanical allodynia; test: Taxol Induced Peripheral Neuropathy Model (pilot), Von Frey testing; format: in vivo, Sprague-Dawley rats; settings: Taxol 2 mg/kg i.p. days 1, 3, 5, 7 + HPMC vehicle; day 12 (baseline 16.42±2.14 g)
Method: In addition, the compound's effects on spontaneous locomotor activity was measured.
The animals were housed in polycarbonate plastic cages, 2 animals per cage, at a temperature of 18-26° C., 30-70% humidity, 12-hour light/dark cycle, with food and water available ad libityum.
On days 1, 3, 5, and 7, the rats received an ip (intraperitoneal) injection of Taxol® (2 mg/kg).
Two behavioral tests were performed: measurement of tactile sensitivity and spontaneous locomotor activity. At baseline and on Days 5 and 12 post-Taxol® injection, the animals underwent Von Frey testing for mechanical allodynia (according to the procedure as described in Chaplan, S R, Bach, F W, Pogrel, J W, Chung, J M, Yaksh, T L. Quantitative assessment of tactile allodynia in the rat paw. J Neurosci Meth, 53:55-63, 1994). Tactile sensitivity (i.e. mechanical allodynia) was measured using calibrated filaments touched to the plantar surface of the affected limb to determine paw withdrawal threshold. Briefly, the rats were placed in a Plexiglas cage with a wire mesh bottom and allowed to acclimate for 10 minutes. Once the animals settled, the plantar surface of the right hind paw was touched with a 2.0 g von Frey filament. […] Data were analyzed using two-way ANOVA, one-way ANOVA and Dunnett's test, with statistical significance at p<0.05.

CN(CC1COc2ccccc2O1)S(N)(=O)=O (stereo not drawn)
melting point: 97 to 98 °C

CN(C)S(=O)(=O)NCC1COc2ccccc2O1 (stereo not drawn)
melting point: 76 to 78 °C

CC(=O)O[C@H]1C(=O)[C@@]2(C)[C@H]([C@H](OC(=O)c3ccccc3)[C@]3(O)C[C@H](OC(=O)[C@H](O)[C@@H](NC(=O)c4ccccc4)c4ccccc4)C(C)=C1C3(C)C)[C@]1(OC(C)=O)CO[C@@H]1C[C@@H]2O [Taxol®, paclitaxel, reference compound]
paw withdrawal threshold (mechanical allodynia) [1]: 12.11 ± 4.92 g

NS(=O)(=O)NCCC1COc2ccccc2O1 (stereo not drawn)
melting point: 101 to 103 °C

NS(=O)(=O)NC[C@H]1COc2cc(Cl)c(Cl)cc2O1
melting point: 119 to 121 °C

NS(=O)(=O)NCC1CCc2ccccc2O1 (stereo not drawn)
melting point: 100 to 101 °C
